# The CheMixHub viscosity set
# ± gives the uncertainty stated by the source.
# Experiment: xn = mol fraction of the nth substance listed
compound,measurement,setting,value
CCOCC + Nc1ccccc1,viscosity,"298.15 K, 101 kPa, x1 = 0.3027",1.359 ± 0.063 mPa·s
same,viscosity,"298.15 K, 101 kPa, x1 = 0.5488",0.669 ± 0.067 mPa·s
same,viscosity,"298.15 K, 101 kPa, x1 = 0.7838",0.38 ± 0.071 mPa·s
CCCCCCCCCCCCCC[P+](CCCCCC)(CCCCCC)CCCCCC.c1nnc[n-]1 + O,viscosity,"298.15 K, 100 kPa, x2 = 0.7956",114 ± 3 mPa·s
CCCCCCO + O,viscosity,"298.15 K, 101 kPa, x2 = 0.0042",4.567 ± 0.04 mPa·s
same,viscosity,"298.15 K, 101 kPa, x2 = 0.0593",4.427 ± 0.038 mPa·s
same,viscosity,"298.15 K, 101 kPa, x2 = 0.1079",4.355 ± 0.037 mPa·s
same,viscosity,"298.15 K, 101 kPa, x2 = 0.1483",4.324 ± 0.036 mPa·s
same,viscosity,"298.15 K, 101 kPa, x2 = 0.1933",4.314 ± 0.036 mPa·s
same,viscosity,"298.15 K, 101 kPa, x2 = 0.2367",4.322 ± 0.035 mPa·s
same,viscosity,"298.15 K, 101 kPa, x2 = 0.2673",4.341 ± 0.035 mPa·s
same,viscosity,"298.15 K, 101 kPa, x2 = 0.2981",4.369 ± 0.035 mPa·s
same,viscosity,"308.15 K, 101 kPa, x2 = 0.0042",3.388 ± 0.03 mPa·s
same,viscosity,"308.15 K, 101 kPa, x2 = 0.0593",3.295 ± 0.029 mPa·s
same,viscosity,"308.15 K, 101 kPa, x2 = 0.1079",3.237 ± 0.028 mPa·s
same,viscosity,"308.15 K, 101 kPa, x2 = 0.1483",3.209 ± 0.027 mPa·s
same,viscosity,"308.15 K, 101 kPa, x2 = 0.1933",3.193 ± 0.027 mPa·s
same,viscosity,"308.15 K, 101 kPa, x2 = 0.2367",3.192 ± 0.026 mPa·s
same,viscosity,"308.15 K, 101 kPa, x2 = 0.2673",3.198 ± 0.026 mPa·s
same,viscosity,"308.15 K, 101 kPa, x2 = 0.2981",3.213 ± 0.026 mPa·s
same,viscosity,"318.15 K, 101 kPa, x2 = 0.0013",2.573 ± 0.023 mPa·s
same,viscosity,"318.15 K, 101 kPa, x2 = 0.0554",2.513 ± 0.022 mPa·s
same,viscosity,"318.15 K, 101 kPa, x2 = 0.1019",2.475 ± 0.022 mPa·s
same,viscosity,"318.15 K, 101 kPa, x2 = 0.1483",2.447 ± 0.021 mPa·s
same,viscosity,"318.15 K, 101 kPa, x2 = 0.1875",2.432 ± 0.021 mPa·s
same,viscosity,"318.15 K, 101 kPa, x2 = 0.2248",2.425 ± 0.02 mPa·s
same,viscosity,"318.15 K, 101 kPa, x2 = 0.2673",2.427 ± 0.02 mPa·s
same,viscosity,"318.15 K, 101 kPa, x2 = 0.3116",2.439 ± 0.02 mPa·s
CCOCC + O,viscosity,"298.15 K, 101 kPa, x1 = 0.00334",0.9366 ± 0.0045 mPa·s
same,viscosity,"298.15 K, 101 kPa, x1 = 0.00369",1.053 ± 0.009 mPa·s
same,viscosity,"298.15 K, 101 kPa, x1 = 0.00509",0.9597 ± 0.0045 mPa·s
same,viscosity,"298.15 K, 101 kPa, x1 = 0.00551",1.073 ± 0.009 mPa·s
same,viscosity,"298.15 K, 101 kPa, x1 = 0.00769",0.9959 ± 0.0046 mPa·s
same,viscosity,"298.15 K, 101 kPa, x1 = 0.00866",1.107 ± 0.01 mPa·s
same,viscosity,"298.15 K, 101 kPa, x1 = 0.00871",1.01 ± 0.0046 mPa·s
same,viscosity,"298.15 K, 101 kPa, x1 = 0.0107",1.132 ± 0.01 mPa·s
same,viscosity,"298.15 K, 101 kPa, x1 = 0.0113",1.138 ± 0.01 mPa·s
same,viscosity,"298.15 K, 101 kPa, x1 = 0.0149",1.088 ± 0.0046 mPa·s
same,viscosity,"298.15 K, 101 kPa, x1 = 0.973",0.27 ± 0.007 mPa·s
same,viscosity,"298.15 K, 101 kPa, x2 = 0.0179",0.269 ± 0.007 mPa·s
